Reference: ChEMBL document CHEMBL1156829 (Proc Natl Acad Sci U S A, 2008)
Square brackets hold non-standard residues; d marks the D form. Peptide text beside a SMILES is read from it. * marks the point of attachment. NHCH2CH2OH = OCCN*; For = O=C*

How the values were obtained:
[1] = tested on: Plasmodium falciparum; test: NOVARTIS: Inhibition of Plasmodium falciparum 3D7 (drug-susceptible) proliferation in erythrocyte-based infection assay; assay type: functional, organism-based; conditions: Plasmodium falciparum, 3D7
[2] = tested on: Plasmodium falciparum; test: NOVARTIS: Inhibition of Plasmodium falciparum W2 (drug-resistant) proliferation in erythrocyte-based infection assay; assay type: functional, organism-based; conditions: Plasmodium falciparum, W2; read-out: EC50
[3] = NOVARTIS: Cytotoxicity against human hepatocellular carcinoma cell line (Huh7); assay type: toxicity, cell-based, Huh-7; conditions: Huh7 cells (hepatocellular carcinoma cell line)

Compound	EC50 [1]	EC50 [2]	CC50 [3]
CCC(C(=O)N(C)CCCNc1ccnc2cc(Cl)ccc12)c1ccccc1 (configuration not stated)	0.311 µM	0.31 µM	6.17 µM
Cc1ccc(-c2nnc(Nc3ccc(F)cc3)c3ccccc23)cc1S(=O)(=O)NCC1CCCO1 (configuration not stated)	1.71 µM	3.11 µM	> 100 µM
O=C(Oc1ccccc1-c1nc2ccccn2c1NC1CCCCC1)c1ccc([N+](=O)[O-])cc1Cl	> 1.25 µM	0.352 µM	> 10 µM
CC(C)n1nnnc1CN1CCN(c2ccccc2F)CC1	> 1.48 µM	> 1.19 µM	> 10 µM
Nc1ccc(-c2nc3cc(Oc4ccc5[nH]c(-c6ccc(N)cc6)nc5c4)ccc3[nH]2)cc1	0.683 µM	0.357 µM	21.4 µM
COc1ccc(C2=C(Nc3ccc(C)c(C)c3)c3ccccc3C2=O)cc1	0.297 µM	0.281 µM	> 100 µM
COc1ccc(-c2cn(-c3ccc(OC)cc3)c(SCC(=O)Nc3ccccc3)n2)cc1	> 11.2 µM	> 11.2 µM	> 100 µM
COc1ccc2nc(C)cc(Nc3cccc(O)c3)c2c1	0.228 µM	0.347 µM	51 µM
CCOc1ccc(NC(=O)c2ccc(C)o2)cc1	3.71 µM	4.43 µM	13 µM
CN1CCC(NCCc2ccc(Cl)cc2)CC1	0.909 µM	0.21 µM	18.9 µM
Cc1ncc(CCCCN(C)C)c2c1[nH]c1ccccc12	0.472 µM	0.325 µM	18.8 µM
CCOC(=O)N1CCC(n2c(SCC(=O)N3CCCCCC3)nc3ccccc3c2=O)CC1	7.34 µM	1.09 µM	> 100 µM
O=C(CCN1C(=O)C2CCCCC2C1=O)N1CCc2ccccc2C1 (configuration not stated)	> 4.85 µM	7.49 µM	> 100 µM
CC(=O)N1c2ccccc2C(C)(c2ccc(Br)cc2)CC1(C)C (configuration not stated)	4.27 µM	2.42 µM	71.4 µM
COc1cc(-c2nc3ccc(N4CCN(C)CC4)cc3[nH]2)cc(OC)c1OC	0.733 µM	5.57 µM	21.2 µM
CC(C)(C)NC(=O)c1cn(C2CCCCC2)cc(C(=O)NC2CCN(Cc3ccccc3)C2)c1=O (configuration not stated)	0.188 µM	< 0.0128 µM	> 10 µM
Oc1c(C(Nc2ccccn2)c2ccc(Br)cc2)ccc2cccnc12 (configuration not stated)	0.358 µM	0.284 µM	> 100 µM
CC(C)(C)c1ccc(Cn2nnc3c(O)nc(C4CCN(C(=O)c5ccccc5)CC4)nc32)cc1	0.242 µM	0.852 µM	> 100 µM
CC(=O)OCN1C(=O)N(COC(C)=O)C2C1N(COC(C)=O)C(=O)N2COC(C)=O (configuration not stated)	> 11.6 µM	4.22 µM	> 100 µM
O=C1CSC2=NCN(c3cccc(Cl)c3)CN12	> 12.5 µM	1.26 µM	> 100 µM
Cc1c(C(=O)Nc2ccccc2)sc2ncn(Cc3ccccc3F)c(=O)c12	> 0.875 µM	> 1.48 µM	> 10 µM
CC1CCN(c2ncnc3sc4c(c23)CCC(C)C4)CC1 (configuration not stated)	1.05 µM	2.3 µM	> 100 µM

Compound	EC50 [1]	EC50 [2]	CC50 [3]
CC(C)C[C@@H](NC(=O)[C@H](C)NC(=O)CNC(=O)[C@@H](NC=O)C(C)C)C(=O)N[C@@H](C)C(=O)N[C@@H](C(=O)N[C@H](C(=O)N[C@@H](C(=O)N[C@@H](Cc1c[nH]c2ccccc12)C(=O)N[C@H](CC(C)C)C(=O)N[C@@H](Cc1c[nH]c2ccccc12)C(=O)N[C@H](CC(C)C)C(=O)N[C@@H](Cc1c[nH]c2ccccc12)C(=O)N[C@H](CC(C)C)C(=O)N[C@@H](Cc1c[nH]c2ccccc12)C(=O)NCCO)C(C)C)C(C)C)C(C)C (For-VGA[dL]A[dV]V[dV]W[dL]W[dL]W[dL]W-NHCH2CH2OH)	2.89 µM	2.99 µM	98.8 µM
COc1ccc(NC(=O)CN2CCN(S(=O)(=O)c3cccc([N+](=O)[O-])c3)CC2)c(OC)c1	> 12.5 µM	1.3 µM	> 100 µM
COc1ccc(OCC(=O)Nc2cccc(NC(=O)COc3ccc(OC)cc3)n2)cc1	6.84 µM	2.29 µM	> 100 µM
COCCNCc1cc2cc3c(cc2n(Cc2cccc(F)c2)c1=O)OCO3	> 1.25 µM	1.27 µM	> 10 µM
CC1CCC2C(C)C(=O)OC3OC(C)C4CC1C32OO4 (configuration not stated)	0.0191 µM	0.00762 µM	> 10 µM
CCOC(=O)C1CSC(c2ccc(C(F)(F)F)cc2)N1C(=O)/C=C/c1ccccc1 (configuration not stated)	> 1.34 µM	0.381 µM	> 7.95 µM
COc1ccc(N(C)C(=O)CNC(=O)c2nn(-c3ccc(OC)cc3OC)c(=O)c3ccccc23)cc1	> 1.25 µM	> 0.685 µM	> 10 µM
CCC(c1nc2ccccc2c(=O)n1-c1ccc(Cl)cc1)N(Cc1ccccc1)C(=O)Nc1c(C(C)C)cccc1C(C)C (configuration not stated)	> 1.42 µM	0.0267 µM	> 10 µM
CCCCc1ccc(C(=O)N(CC(=O)Nc2cc(C(C)(C)C)nn2-c2ccc(Cl)cc2)C(C)C)cc1	> 1.38 µM	> 0.832 µM	> 10 µM
CCC(C)NC(=O)c1c[nH]c2ccc(S(=O)(=O)N(C)c3cc(C)ccc3C)cc2c1=O (configuration not stated)	5.22 µM	2.17 µM	59.3 µM
Cc1ccn2c(NC(C)(C)CC(C)(C)C)c(-c3ccccc3OC(=O)c3cccc(Cl)c3)nc2c1	0.424 µM	0.00989 µM	> 10 µM
CCOC(=O)C1=C(C)NC2=C(C(=O)C(C(=O)OCC)C(c3ccccc3OC)C2)C1c1ccc(OC)c(OC)c1 (configuration not stated)	0.0831 µM	0.0744 µM	> 100 µM
CCOC(=O)C1=C(C)NC2=C(C(=O)C(C(=O)OC)C(C)C2)C1c1cc(Br)c(OCC)c(OC)c1 (configuration not stated)	0.255 µM	0.0396 µM	> 100 µM
OCCNc1nc(Nc2ccccc2)nc2ccccc12	0.167 µM	0.626 µM	47.5 µM
COc1ccc(NC2=C(c3ccc(OC)cc3)C(=O)c3ccccc32)cc1	0.437 µM	0.423 µM	> 100 µM
CCOc1ccccc1NC(=O)Nc1ccc2nc(N3CCN(C)CC3)cc(C)c2c1	1.17 µM	0.456 µM	21.4 µM
COc1cccc(NC(=O)Cn2c(C)c(C#N)c3ccccc32)c1	0.0796 µM	0.104 µM	> 100 µM
Nc1nc(N)c2nc(CCc3ccc(C(=O)N[C@H](CCC(=O)O)C(=O)O)cc3)cnc2n1	0.0295 µM	0.00178 µM	0.0081 µM
CCCCCCCc1cc(O)c2c3c(c(=O)oc2c1)CCC(C)C3 (configuration not stated)	1.21 µM	1.73 µM	> 100 µM
COc1cccc(CCOc2ccc3c(c2)C(=O)N(C(C(=O)NC(C)(C)C)c2cccc(OC)c2)C(CO)C(=O)N3)c1 (configuration not stated)	0.153 µM	0.169 µM	> 9.1 µM
CCOC(=O)c1c(C)nc2c(c1C)c(=O)oc1ccccc12	> 12.5 µM	0.0705 µM	> 100 µM
CN1CCN(c2cc(-c3ccncc3)nc(-c3cccnc3)n2)CC1	0.511 µM	0.494 µM	> 10 µM

Compound	EC50 [1]	EC50 [2]	CC50 [3]
O=C(c1ccc(N2CC3CC(C2)c2cccc(=O)n2C3)c(NS(=O)(=O)c2ccc3c(c2)OCCO3)c1)N1CCN(c2ccccn2)CC1 (configuration not stated)	2.02 µM	0.194 µM	> 100 µM
CC(C)CC(=O)N(C)CCCNc1ccnc2cc(Cl)ccc12	0.74 µM	0.121 µM	7.44 µM
Clc1ccc2c(c1)CN(C1CCCCC1)CO2	2.29 µM	0.2 µM	71 µM
CCNC(=O)NCCSc1nc(-c2ccccc2)c(-c2ccccc2)n1CC	1.63 µM	0.917 µM	> 100 µM
C(#Cc1ccccc1)C[N+]1(CCOc2ccccc2)CCCCC1	1.44 µM	0.981 µM	> 100 µM
COCCSc1nc2sc3c(c2c(=O)n1-c1ccc(OC)cc1)CCN(C)C3	3.02 µM	1.77 µM	> 100 µM
CN(Cc1cc2ccc(F)cc2n(CCN2CCCCC2)c1=O)CC1COCCO1 (configuration not stated)	> 12.5 µM	4.62 µM	> 100 µM
CCOc1ccc(CN2CCN(CC(O)COc3ccc(OCC(O)CN4CCN(Cc5ccc(OCC)cc5)CC4)cc3)CC2)cc1 (configuration not stated)	1.37 µM	2.68 µM	73.7 µM
Cc1ccccc1C(=O)N1CCC(n2nccc2NC(=O)CCOc2ccccc2)CC1	> 12.5 µM	4.45 µM	> 100 µM
O=C(Nc1ccc(-c2nc3ccc(-c4nc5ccc(NC(=O)c6ccccc6[N+](=O)[O-])cc5[nH]4)cc3[nH]2)cc1)c1ccccc1[N+](=O)[O-]	> 1.25 µM	0.987 µM	> 10 µM
Cc1ccn2c(NC(C)(C)CC(C)(C)C)c(-c3ccccc3OC(=O)CCC3CCCC3)nc2c1	1.1 µM	< 0.0102 µM	> 10 µM
CCCN(CCC)CCCNc1ccc(C(=O)Nc2ccc(C)c(F)c2)cc1[N+](=O)[O-]	0.146 µM	0.268 µM	10.6 µM
CCN(CC)CCCC(C)Nc1cc(/C=C/c2ccccc2Cl)nc2cc(Cl)ccc12 (configuration not stated) [AMINOQUINOL]	0.178 µM	0.283 µM	> 10 µM
O=c1c2sccc2nc(SCc2cccc([N+](=O)[O-])c2)n1C1CC1	1.25 µM	> 1.52 µM	> 10 µM
N=c1n(CCN2CCCCC2)c2ccccc2n1CC(O)c1ccc(Cl)c(Cl)c1 (configuration not stated)	0.0528 µM	0.224 µM	12.8 µM
CON(C)C(=O)c1cccc2ccccc12	0.856 µM	> 1.25 µM	> 10 µM
CC[C@H]1CN2CCc3cc(OC)c(OC)cc3[C@@H]2C[C@@H]1C[C@@H]1NCCc2cc(OC)c(OC)cc21	0.0106 µM	0.0231 µM	0.0822 µM
COc1cc(NC(C)CCCN(Cc2ccccc2OC)C(=O)C(C)C)c2ncccc2c1 (configuration not stated)	0.684 µM	0.406 µM	> 7.7 µM
Cc1cc(C)n2nc(-c3ccc(Cl)cc3)cc2n1	> 0.685 µM	> 1.25 µM	> 10 µM
Cn1c(=O)[nH]c2c(c1=O)n(C)c(=O)n2C	> 0.957 µM	> 0.799 µM	> 10 µM
